Laboratory results reported in patent publication US20240366784A1, “INJECTABLE HYDROGEL COMPOSITIONS AND METHODS OF USE THEREOF” (Drexel University, priority 2023, published 2024).

Columns and labels:
[1] = typically reported; cited from earlier work
RAW264.7 cells = assay: qPCR transcriptional analysis of zymosan-activated RAW264.7 macrophages; format: cell-based, murine; conditions: zymosan 100 μg/mL, drug 1 μM, 24 hrs
Method: For secondary identification of M2-promoting drugs, transcriptional analysis using qPCR was performed. RAW264.7 cells were plated at 1×10^6 cells/well in 24 well plates. After 24 h, media was replaced, and IL-4 (10 ng/mL, PeproTech) or zymosan (100 μg/mL) were included to serve as internal controls for M2-like and M1-like phenotypes, respectively. Treatment groups were concurrently activated via zymosan and treated with 1 μM drug concentrations, n=3 per group. After 24 hrs, cells were lysed by freezing, RNA was extracted (RNEasy Mini Kit; Qiagen), and cDNA synthesis was performed (High-Capacity cDNA Reverse Transcription Kit; Fisher). Samples were subject to qPCR using Taqman Fast Advanced Master Mix and probes (Fisher) for analysis of hprt (Mm01545399_m1), nos2 (Mm00440502_m1), il12b (Mm01288989_m1), il6 (Mm00446190_m1), mrc1 (Mm00485148_m1), il10 (Mm01288386_m1), and arg1 (Mm00475988_m1). Data is expressed as a fold change in gene expression using the ΔΔCt method, relative to the hprt and zymosan-treated controls.

[2] = system: Bone marrow derived macrophages (BMDMs); assay: nanoString gene expression analysis in zymosan-activated bone marrow derived macrophages; format: cell-based, mouse; conditions: zymosan 100 μg/mL, drug 1 μM, 24 hrs, 91-gene panel
Method: Cells were maintained under standard culture conditions (37° C., 5% CO2) in the indicated medium which was replenished every two days. The murine MF cell lines, RAW 264.7 (ATCC) and RAW-Blue™ (InvivoGen), were cultured in Dulbecco's Modified Eagle Medium (DMEM) supplemented with heat-inactivated fetal bovine serum (FBS), and 1% penicillin-streptomycin (Pen-Strep). RAW-Blue™ media was additionally supplemented by 100 μg/ml Normocin with the addition of 100 μg/ml of Zeocin every other passage to maintain selection pressure, as recommended by the manufacturer. Cells were passaged at 70% confluency. Primary MF were derived from murine and human tissues. Bone marrow derived macrophages (BMDMs) were isolated and derived according to standard protocols. Marrow was extracted from the surgically resected femur and tibia of male C57BL/6 mice, dissociated, and filtered using a 40 μm strainer. Red blood cells were lysed with ammonium chloride, and recovered cells were plated at 2×10^6 cells/well in 24 well plates and maintained in Iscove's Modification of DMEM (IMDM) supplemented with 10% heat-inactivated FBS, 1% Pen-Strep, and 10 ng/mL recombinant mouse macrophage colony-stimulating factor (M-CSF; PeproTech). Primary human monocytes were isolated from peripheral blood (New York Blood Center) from a single healthy human donor via density centrifugation as previously described in the literature. […]

Compound | Keq of polyaromatic guests with CD [1] | change in il12b expression among six selected drugs (RAW264.7 cells) | change in mrc1 and il10 expression among six selected drugs (RAW264.7 cells) | expression of M1-like genes (nos2, il6, il12b) (RAW264.7 cells; qPCR) | expression of M2-like genes (mrc1, arg1, il10) (RAW264.7 cells; qPCR) | cluster analysis of macrophage phenotype [2]
COc1cccc2c1C(=O)c1c(O)c3c(c(O)c1C2=O)C[C@@](O)(C(=O)CO)C[C@@H]3O[C@H]1C[C@H](N)[C@H](O)[C@H](C)O1 [doxorubicin] | single micromolar |  |  |  |  | 
COc1ccc(C(=O)Nc2c(Cl)cncc2Cl)cc1OC1CCCC1 [piclamilast] |  | greatest decrease | greatest increase | significantly downregulated | upregulation | intermediate to M1 and M2 control phenotypes
N[C@@H](Cc1c[nH]c2ccccc12)C(=O)O [tryptophan] | single micromolar |  |  |  |  | 
